Results as given in patent US20090018134A1, “Compounds - 945” (AstraZeneca AB, priority 2007, published 2009).

biological target: T1, mTOR (Homo sapiens, UniProt P42345); assay: In Vitro mTOR Kinase Assay (Echo), Test (a)(ii); type: biochemical; settings: table of enzyme assay Test (a)(ii); read-out: Test (a)(ii) IC50
T1 construct: FLAG; made in house
Summary of the method: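 Inhibition expressed as IC50 from an AlphaScreen read-out: phospho-T389 p70 S6K antibody plus streptavidin donor/protein A acceptor beads, left overnight in the dark. The kinase reaction ran 2 h at room temperature, then was stopped with EDTA. Enzyme: FLAG-purified mTOR 1362-2549 fragment from stable HEK293 cells.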

T1 sequence (P42345 1362-2549): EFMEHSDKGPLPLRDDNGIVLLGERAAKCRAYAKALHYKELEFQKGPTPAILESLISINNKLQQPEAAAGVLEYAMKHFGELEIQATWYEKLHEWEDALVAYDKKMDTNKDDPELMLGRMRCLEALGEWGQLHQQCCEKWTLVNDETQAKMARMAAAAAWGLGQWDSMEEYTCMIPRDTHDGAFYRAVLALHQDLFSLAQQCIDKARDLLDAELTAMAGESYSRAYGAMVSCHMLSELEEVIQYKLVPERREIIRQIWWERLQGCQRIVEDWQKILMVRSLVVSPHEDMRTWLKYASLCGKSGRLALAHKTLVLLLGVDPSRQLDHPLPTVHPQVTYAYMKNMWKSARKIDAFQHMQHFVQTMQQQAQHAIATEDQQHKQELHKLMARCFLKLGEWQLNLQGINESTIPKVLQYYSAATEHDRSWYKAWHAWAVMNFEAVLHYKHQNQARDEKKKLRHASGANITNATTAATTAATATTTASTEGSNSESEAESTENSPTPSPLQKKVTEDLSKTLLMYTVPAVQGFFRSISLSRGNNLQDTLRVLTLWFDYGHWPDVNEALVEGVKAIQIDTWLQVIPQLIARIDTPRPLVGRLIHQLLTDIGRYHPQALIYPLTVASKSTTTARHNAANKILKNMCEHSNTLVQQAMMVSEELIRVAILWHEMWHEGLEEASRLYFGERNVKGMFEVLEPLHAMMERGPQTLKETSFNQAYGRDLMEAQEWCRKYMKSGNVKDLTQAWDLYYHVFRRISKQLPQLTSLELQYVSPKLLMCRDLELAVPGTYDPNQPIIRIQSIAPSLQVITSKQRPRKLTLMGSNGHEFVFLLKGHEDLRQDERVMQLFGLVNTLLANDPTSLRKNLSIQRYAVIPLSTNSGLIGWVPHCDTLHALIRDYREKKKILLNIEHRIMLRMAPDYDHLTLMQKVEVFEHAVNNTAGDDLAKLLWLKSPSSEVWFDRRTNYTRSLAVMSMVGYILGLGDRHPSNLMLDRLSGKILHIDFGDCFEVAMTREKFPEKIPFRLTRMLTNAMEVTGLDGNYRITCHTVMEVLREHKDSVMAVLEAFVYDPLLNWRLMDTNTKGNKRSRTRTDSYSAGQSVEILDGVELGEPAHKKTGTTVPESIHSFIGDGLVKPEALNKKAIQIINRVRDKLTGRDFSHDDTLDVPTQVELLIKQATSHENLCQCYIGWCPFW

SMILES	IC50 [nM]
CCNC(=S)Nc1ccc(-c2nc(N3CCOC[C@@H]3C)cc(C3(S(C)(=O)=O)CC3)n2)cc1 [Example 35a, 3-ethyl-1-[4-[4-[(3S)-3-methylmorpholin-4-yl]-6-(1-methylsulfonylcyclopropyl)pyrimidin-2-yl]phenyl]thiourea]	5.52
C[C@H]1COCCN1c1cc(C2(S(C)(=O)=O)CC2)nc(-c2ccc(NC(=S)NCCO)cc2)n1 [Example 35b, 3-(2-hydroxyethyl)-1-[4-[4-[(3S)-3-methylmorpholin-4-yl]-6-(1-methylsulfonylcyclopropyl)pyrimidin-2-yl]phenyl]thiourea]	0.577
C[C@H]1COCCN1c1cc(C2(S(C)(=O)=O)CC2)nc(-c2ccc(NC(=S)NCCN(C)C)cc2)n1 [Example 35c, 3-(2-dimethylaminoethyl)-1-[4-[4-[(3S)-3-methylmorpholin-4-yl]-6-(1-methylsulfonylcyclopropyl)pyrimidin-2-yl]phenyl]thiourea]	108
C[C@H]1COCCN1c1cc(C2(S(C)(=O)=O)CC2)nc(-c2ccc(NC(=S)NC3CC3)cc2)n1 [Example 35d, 3-cyclopropyl-1-[4-[4-[(3S)-3-methylmorpholin-4-yl]-6-(1-methylsulfonylcyclopropyl)pyrimidin-2-yl]phenyl]thiourea]	4.11
C[C@H]1COCCN1c1cc(C2(S(=O)(=O)CCCO)CC2)nc(-c2ccc(NC(=O)NC3(CO)CC3)cc2)n1 [Example 36a, 3-[1-(hydroxymethyl)cyclopro-pyl]-1-[4-[4-[1-(3-hydroxypropylsulfonyl)cyclopropyl]-6-[(3S)-3-methylmorpholin-4-yl]pyrimidin-2-yl]phenyl]urea]	142
C[C@H]1COCCN1c1cc(C2(S(=O)(=O)c3ccc(F)cc3)CC2)nc(-c2ccc(NC(=O)NCc3ncc[nH]3)cc2)n1 [Example 36aa, 1-[4-[4-[1-(4-fluorophenyl)sulfonylcyclopropyl]-6-[(3S)-3-methylmorpholin-4-yl]pyrimidin-2-yl]phenyl]-3-(1H-imidazol-2-ylmethyl)urea]	74.9
C[C@H]1COCCN1c1cc(C2(S(=O)(=O)c3ccccn3)CCCC2)nc(-c2ccc(NC(=O)NC3CC3)cc2)n1 [Example 36ab, 3-cyclopropyl-1-[4-[4-[(3S)-3-methylmorpholin-4-yl]-6-(1-pyridin-2-ylsulfonylcyclopentyl)pyrimidin-2-yl]phenyl]urea]	11
C[C@H]1COCCN1c1cc(C2(S(=O)(=O)c3ccccn3)CCCC2)nc(-c2ccc(NC(=O)NCCO)cc2)n1 [Example 36ac, 3-(2-hydroxyethyl)-1-[4-[4-[(3S)-3-methylmorpholin-4-yl]-6-(1-pyridin-2-ylsulfonylcyclopentyl)pyrimidin-2-yl]phenyl]urea]	4.41
C[C@H]1COCCN1c1cc(C2(S(=O)(=O)c3ccccn3)CCCC2)nc(-c2ccc(NC(=O)NCCC#N)cc2)n1 [Example 36ad, 3-(2-cyanoethyl)-1-[4-[4-[(3S)-3-methylmorpholin-4-yl]-6-(1-pyridin-2-ylsulfonylcyclopentyl)pyrimidin-2-yl]phenyl]urea]	32.3
C[C@H]1COCCN1c1cc(C2(S(=O)(=O)c3ccccn3)CCCC2)nc(-c2ccc(NC(=O)NCCCO)cc2)n1 [Example 36ae, 3-(3-hydroxypropyl)-1-[4-[4-[(3S)-3-methylmorpholin-4-yl]-6-(1-pyridin-2-ylsulfonylcyclopentyl)pyrimidin-2-yl]phenyl]urea]	15.1
C[C@H]1COCCN1c1cc(C2(S(=O)(=O)c3ccccn3)CCC2)nc(-c2ccc(NC(=O)NC3CC3)cc2)n1 [Example 36af, 3-cyclopropyl-1-[4-[4-[(3S)-3-methylmorpholin-4-yl]-6-(1-pyridin-2-ylsulfonylcyclobutyl)pyrimidin-2-yl]phenyl]urea]	2.75
CNC(=O)Nc1ccc(-c2nc(N3CCOC[C@@H]3C)cc(C3(S(=O)(=O)c4ccccn4)CCC3)n2)cc1 [Example 36ag, 3-methyl-1-[4-[4-[(3S)-3-methylmorpholin-4-yl]-6-(1-pyridin-2-ylsulfonylcyclobutyl)pyrimidin-2-yl]phenyl]urea]	1.3
C[C@H]1COCCN1c1cc(C2(S(=O)(=O)c3ccccn3)CCC2)nc(-c2ccc(NC(=O)NCCO)cc2)n1 [Example 36ah, 3-(2-hydroxyethyl)-1-[4-[4-[(3S)-3-methylmorpholin-4-yl]-6-(1-pyridin-2-ylsulfonylcyclobutyl)pyrimidin-2-yl]phenyl]urea]	2.47
C[C@H]1COCCN1c1cc(C2(S(=O)(=O)c3ccccn3)CCC2)nc(-c2ccc(NC(=O)NCCC#N)cc2)n1 [Example 36ai, 3-(2-cyanoethyl)-1-[4-[4-[(3S)-3-methylmorpholin-4-yl]-6-(1-pyridin-2-ylsulfonylcyclobutyl)pyrimidin-2-yl)phenyl]urea]	5.61
C[C@H]1COCCN1c1cc(C2(S(=O)(=O)c3ccccn3)CCC2)nc(-c2ccc(NC(=O)NCc3ncc[nH]3)cc2)n1 [Example 36ak, 3-(1H-imidazol-2-ylmethyl)-1-[4-[4-[(3S)-3-methylmorpholin-4-yl]-6-(1-pyridin-2-ylsulfonylcyclobutyl)pyrimidin-2-yl]phenyl]urea]	2.45
O=C(Nc1ccc(-c2nc(N3CCOCC3)cc(C3(S(=O)(=O)c4ccc(F)cc4)CC3)n2)cc1)Nc1ncns1 [Example 36an, 1-[4-[4-[1-(4-fluorophenyl)sulfonylcyclopropyl]-6-morpholin-4-ylpyrimidin-2-yl]phenyl]-3-(1,2,4-thiadiazol-5-yl)urea]	10.4
CCNC(=O)Nc1ccc(-c2nc(N3CCOCC3)cc(C3(S(=O)(=O)c4ccc(F)cc4)CC3)n2)cc1 [Example 36ao, 1-ethyl-3-[4-[4-[1-(4-fluorophenyl)sulfonylcyclopropyl]-6-morpholin-4-ylpyrimidin-2-yl]phenyl]urea]	14
CNC(=O)Nc1ccc(-c2nc(N3CCOCC3)cc(C3(S(=O)(=O)c4ccc(F)cc4)CC3)n2)cc1 [Example 36ap, 3-[4-[4-[1-(4-fluorophenyl)sulfonylcyclopropyl]-6-morpholin-4-ylpyrimidin-2-yl]phenyl]-1-methylurea]	15.6
Cn1cc(NC(=O)Nc2ccc(-c3nc(N4CCOCC4)cc(C4(S(=O)(=O)c5ccc(F)cc5)CC4)n3)cc2)cn1 [Example 36aq, 3-[4-[4-[1-(4-fluorophenyl)sulfonylcyclopropyl]-6-morpholin-4-ylpyrimidin-2-yl]phenyl]-1-(1-methylpyrazol-4-yl)urea]	15.7
O=C(NCCO)Nc1ccc(-c2nc(N3CCOCC3)cc(C3(S(=O)(=O)c4ccncc4)CC3)n2)cc1 [Example 36ar, 3-(2-hydroxyethyl)-1-[4-[4-morpholin-4-yl-6-(1-pyridin-4-ylsulfonylcyclopropyl)pyrimidin-2-yl]phenyl]urea]	9.45
Cn1cc(NC(=O)Nc2ccc(-c3nc(N4CCOCC4)cc(C4(S(=O)(=O)c5ccncc5)CC4)n3)cc2)cn1 [Example 36as, 1-(1-methylpyrazol-4-yl)-3-[4-[4-morpholin-4-yl-6-(1-pyridin-4-ylsulfonylcyclopropyl)pyrimidin-2-yl]phenyl]urea]	9.11
CNC(=O)Nc1ccc(-c2nc(N3CCOCC3)cc(C3(S(=O)(=O)c4ccncc4)CC3)n2)cc1 [Example 36at, 1-methyl-3-[4-[4-morpholin-4-yl-6-(1-pyridin-4-ylsulfonylcyclopropyl)pyrimidin-2-yl]phenyl]urea]	6.39
CCNC(=O)Nc1ccc(-c2nc(N3CCOCC3)cc(C3(S(=O)(=O)c4ccncc4)CC3)n2)cc1 [Example 36au, 1-ethyl-3-[4-[4-morpholin-4-yl-6-(1-pyridin-4-ylsulfonylcyclopropyl)pyrimidin-2-yl]phenyl]urea]	12.1
O=C(Nc1ccc(-c2nc(N3CCOCC3)cc(C3(S(=O)(=O)c4ccncc4)CC3)n2)cc1)NC1CC1 [Example 36av, 3-cyclopropyl-1-[4-[4-morpholin-4-yl-6-(1-pyridin-4-ylsulfonylcyclopropyl)pyrimidin-2-yl]phenyl]urea]	9.95
N#CCCNC(=O)Nc1ccc(-c2nc(N3CCOCC3)cc(C3(S(=O)(=O)c4ccncc4)CC3)n2)cc1 [Example 36aw, 3-(2-cyanoethyl)-1-[4-[4-morpholin-4-yl-6-(1-pyridin-4-ylsulfonylcyclopropyl)pyrimidin-2-yl]phenyl]urea]	16.4
O=C(NCCCO)Nc1ccc(-c2nc(N3CCOCC3)cc(C3(S(=O)(=O)c4ccncc4)CC3)n2)cc1 [Example 36ax, 3-(3-hydroxypropyl)-1-[4-[4-morpholin-4-yl-6-(1-pyridin-4-ylsulfonylcyclopropyl)pyrimidin-2-yl]phenyl]urea]	21.1
C[C@H]1COCCN1c1cc(C2(S(C)(=O)=O)CC2)nc(-c2ccc(NC(=O)Nc3nccs3)cc2)n1 [Example 36ay, 1-[4-[4-[(3S)-3-methylmorpholin-4-yl]-6-(1-methylsulfonylcyclopropyl)pyri-midin-2-yl]phenyl]-3-(1,3-thiazol-2-yl)urea]	1.17
C[C@H]1COCCN1c1cc(C2(S(=O)(=O)CCCO)CC2)nc(-c2ccc(NC(=O)Nc3ncns3)cc2)n1 [Example 36b, 1-[4-[4-[1-(3-hydroxypropylsulfonyl)cyclopro-pyl]-6-[(3S)-3-methylmorpholin-4-yl]pyrimidin-2-yl]phenyl]-3-(1,2,4-thiadiazol-5-yl)urea]	1.79
C[C@H]1COCCN1c1cc(C2(S(=O)(=O)c3ccccc3)CC2)nc(-c2ccc(NC(=O)NC3CCC3)cc2)n1 [Example 36bd, 1-[4-[4-[1-(benzenesulfonyl)cyclopropyl]-6-[(3S)-3-methylmorpholin-4-yl]pyrimidin-2-yl]phenyl]-3-cyclobutylurea]	2.58
C[C@H]1COCCN1c1cc(C2(S(=O)(=O)c3ccccc3)CC2)nc(-c2ccc(NC(=O)NCC(O)C(F)(F)F)cc2)n1 (stereo partly drawn) [Example 36be, 1-[4-[4-[1-(benzenesulfonyl)cyclopropyl]-6-[(3S)-3-methylmorpholin-4-yl]pyrimidin-2-yl]phenyl]-3-(3,3,3-trifluoro-2-hydroxypropyl)urea]	3.76
